In BindingDB's records for PubMed 1362243 (National Institute of Mental Health, 1992) one finds Ki data, which are given here for two molecules.

Positions of bridges follow the written chain, without caps; N, C: chain ends. Non-standard residues stand in square brackets, D forms with d. Residues, ends and D or L forms follow the SMILES beside them. *: point of attachment. X1 = CC(O)[C@H](CO)N*

In the assay the target is Somatostatin receptor type 4 (Rattus norvegicus, UniProt P30937).
Chain of Somatostatin receptor type 4 (P30937 whole entry): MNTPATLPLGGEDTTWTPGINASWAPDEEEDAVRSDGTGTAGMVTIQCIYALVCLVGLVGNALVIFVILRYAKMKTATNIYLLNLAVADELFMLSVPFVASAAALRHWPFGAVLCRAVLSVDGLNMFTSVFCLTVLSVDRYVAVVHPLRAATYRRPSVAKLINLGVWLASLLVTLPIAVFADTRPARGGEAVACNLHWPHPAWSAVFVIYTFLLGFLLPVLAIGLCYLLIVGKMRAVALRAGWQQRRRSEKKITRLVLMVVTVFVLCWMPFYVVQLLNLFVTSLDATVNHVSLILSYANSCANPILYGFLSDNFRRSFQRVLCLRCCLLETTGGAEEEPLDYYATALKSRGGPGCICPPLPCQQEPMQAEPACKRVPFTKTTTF

For orientation: Ki means the dissociation constant of the complex between target and ligand, obtained from inhibition or displacement. For `CC(O)[C@H](CO)NC(=O)[C@@H]1CSSC[C@H](NC(=O)[C@H](N)Cc2ccccc2)C(=O)N[C@@H](Cc2ccccc2)C(=O)N[C@H](Cc2c[nH]c3ccccc23)C(=O)N[C@@H](CCCCN)C(=O)N[C@@H]([C@@H](C)O)C(=O)N1` (some centres not stated) (H-[dF]CF[dW]KTC-X1; disulfide 2-7), the inhibitory constant (Ki) amounted to 0.18 nM.
Next, `CSCC[C@H](NC(=O)[C@H](C)NC(=O)[C@@H]1CCCN1C(=O)[C@H](CC(N)=O)NC(=O)[C@H](CO)NC(=O)[C@H](CC(N)=O)NC(=O)[C@H](C)NC(=O)[C@@H](N)CO)C(=O)N[C@@H](C)C(=O)N1CCC[C@H]1C(=O)N[C@@H](CCCNC(=N)N)C(=O)N[C@@H](CCC(=O)O)C(=O)N[C@@H](CCCNC(=N)N)C(=O)N[C@@H](CCCCN)C(=O)N[C@@H](C)C(=O)NCC(=O)N[C@H]1CSSC[C@@H](C(=O)O)NC(=O)[C@H](CO)NC(=O)[C@H]([C@@H](C)O)NC(=O)[C@H](Cc2ccccc2)NC(=O)[C@H]([C@@H](C)O)NC(=O)[C@H](CCCCN)NC(=O)[C@H](Cc2c[nH]c3ccccc23)NC(=O)[C@H](Cc2ccccc2)NC(=O)[C@H](Cc2ccccc2)NC(=O)[C@H](CC(N)=O)NC(=O)[C@H](CCCCN)NC1=O` [somatostatin-28]: 0.08 nM.
